Data: BindingDB's records for doi:10.1021/acs.jmedchem.6b00108 (University of Montreal, 2016)
Where a SMILES comes first, the peptide text is derived from it.

Tests used:
[1] = Antagonist activity at UT2 receptor in Sprague-Dawley rat thoracic aorta ring assessed as pEC50 for URP -induced aortic contractions at 10^-5M relative to KCl
[2] = Antagonist activity at UT2 receptor in Sprague-Dawley rat thoracic aorta ring assessed as pEC50 for hU2-induced aortic contractions at 10^-5M relative to KCl

EC50 [1] | EC50 [2] | SMILES
7.9 nM | 5 nM | CC(C)[C@H](NC(=O)[C@@H]1CSSC[C@H](NC(=O)[C@@H](N)CC(=O)O)C(=O)N[C@@H](Cc2ccccc2)C(=O)NN(Cc2cccc3ccccc23)S(=O)(=O)N[C@@H](CCCCN)C(=O)N[C@@H](Cc2ccc(O)cc2)C(=O)N1)C(=O)O
9.5 nM | 15 nM | CC(C)[C@H](NC(=O)[C@@H]1CSSC[C@H](NC(=O)[C@@H](N)CC(=O)O)C(=O)N[C@@H](Cc2ccccc2)C(=O)NN(Cc2ccc3ccccc3c2)S(=O)(=O)N[C@@H](CCCCN)C(=O)N[C@@H](Cc2ccc(O)cc2)C(=O)N1)C(=O)O
3.5 nM | 4.8 nM | CC(C)[C@H](NC(=O)[C@@H]1CSSC[C@H](NC(=O)[C@@H](N)CC(=O)O)C(=O)N[C@@H](Cc2ccccc2)C(=O)NN(Cc2ccccc2)S(=O)(=O)N[C@@H](CCCCN)C(=O)N[C@@H](Cc2ccc(O)cc2)C(=O)N1)C(=O)O (HELM PEPTIDE1{D.C.F.[NCCCC[C@H](NS(=O)(=O)N(Cc1ccccc1)N[*:1])C(=O)[*:2]].Y.C.V}$PEPTIDE1,PEPTIDE1,2:R3-6:R3$$$V2.0)

SMILES | EC50 [1] | EC50 [2]
CC(C)[C@H](NC(=O)[C@@H]1CSSC[C@H](NC(=O)[C@@H](N)CC(=O)O)C(=O)N[C@@H](Cc2ccccc2)C(=O)N[C@@H](Cc2c[nH]c3ccccc23)C(=O)NN(CCCCN(C)C)S(=O)(=O)N[C@@H](Cc2ccc(O)cc2)C(=O)N1)C(=O)O (HELM PEPTIDE1{D.C.F.W.[CN(C)CCCCN(N[*:1])S(=O)(=O)N[C@@H](Cc1ccc(O)cc1)C(=O)[*:2]].C.V}$PEPTIDE1,PEPTIDE1,2:R3-6:R3$$$V2.0) | 3.7 nM | 1.6 nM
